Data published in patent publication US20250059164A1, “IRAK DEGRADERS AND USES THEREOF” (Kymera Therapeutics, Inc., priority 2023, published 2025).

Assays:
[1] = Rodent pharmacokinetics (rat PK); assay type: in vivo; details: po, dosed intravenously or orally by gavage, plasma, read-out: F % (bioavailability)
Method: All studies related to handling, care, and treatment of rats in the study were performed according to the guidelines approved by the Institutional Animal Care and Use Committee (IACUC). All rats had access to food and water ad libitum. Rats were dosed intravenously or orally by gavage. Whole blood was collected from the jugular vein immediately prior to dosing and at 5 (intravenously administered drugs only), 15, and 30 min and 1, 2, 4, 8, and 24 h after drug administration. After sampling, whole blood was centrifuged at 4,000×g for 5 min at 4° C. to obtain plasma.
The letter codes for bioavailability (F %) include: A (≥5%) and B (≤5%).

IRAK4 = biological target: T1, IRAK4 (Homo sapiens, UniProt Q9NWZ3); assay: IRAK4 MSD degradation in OCI-LY10; assay type: cell-based; details: OCI-LY10 cells, 24 hrs, Meso Scale Discovery
T1 construct: endogenous in cells; host or cells: OCI-LY10
T1 sequence (Q9NWZ3 1-460): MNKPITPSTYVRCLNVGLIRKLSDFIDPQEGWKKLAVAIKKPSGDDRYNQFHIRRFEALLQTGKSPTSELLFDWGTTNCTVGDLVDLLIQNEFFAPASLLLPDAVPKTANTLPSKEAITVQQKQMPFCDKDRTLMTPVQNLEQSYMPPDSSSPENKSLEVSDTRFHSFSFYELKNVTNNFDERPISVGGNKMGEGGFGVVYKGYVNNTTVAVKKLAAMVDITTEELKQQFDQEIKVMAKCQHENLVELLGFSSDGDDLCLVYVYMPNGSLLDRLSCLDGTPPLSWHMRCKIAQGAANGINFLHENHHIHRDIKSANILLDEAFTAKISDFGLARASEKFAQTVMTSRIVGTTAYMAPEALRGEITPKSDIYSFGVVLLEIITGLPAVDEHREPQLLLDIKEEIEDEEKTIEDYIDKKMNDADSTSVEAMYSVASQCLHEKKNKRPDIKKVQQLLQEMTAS
Summary of the method: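 OCI-LY10 cells treated 4 to 24 hours at 37° C. with 8-dose 1:3 series, top 1 to 10 μM. IRAK4 in lysates quantified by MSD sandwich immunoassay (mouse capture, rabbit detection, SULFO-TAG anti-rabbit). DC50 from three-parameter logistic fit.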

Structure (SMILES)	bioavailability [1]	DC50 (IRAK4)
COc1cc2nn([C@H]3CC[C@H](CN4CCC5(CN(c6cccc7c6n(C)c(=O)n7C6CCC(=O)NC6=O)C5)C(F)(F)C4)CC3)cc2cc1NC(=O)c1cncc(F)c1 (some centres unmarked) [I-248]	≤ 5%	< 10 nM
Cn1c(=O)n(C2CCC(=O)NC2=O)c2cccc([C@@H]3CCN(C[C@H]4CC[C@H](n5cc6cc(NC(=O)c7cncc(C(F)(F)F)n7)ncc6n5)CC4)C[C@H]3F)c21 (some centres unmarked) [I-156]	≤ 5%	< 10 nM
Cn1c(=O)n([C@H]2CCC(=O)NC2=O)c2cccc([C@@H]3CCN(C[C@H]4CC[C@H](n5cc6cc(NC(=O)c7cncc(C(F)(F)F)n7)ccc6n5)CC4)C[C@H]3F)c21 (single isomer, unassigned) [I-209]	≤ 5%	< 10 nM
CN(C[C@H]1CC[C@H](c2nc3cc(C(C)(C)O)c(NC(=O)c4cccc(C(F)(F)F)n4)cc3s2)CC1)[C@@H]1CCN(c2cccc3c2n(C)c(=O)n3C2CCC(=O)NC2=O)C[C@H]1F (single isomer, unassigned) [I-238]	≥ 5%	< 10 nM
Cn1c(=O)n(C2CCC(=O)NC2=O)c2cccc([C@@H]3CCN(C[C@H]4CC[C@H](n5cc6cc(C(=O)Nc7cccc(C(F)(F)F)n7)ccc6n5)CC4)C[C@H]3F)c21 (some centres unmarked) [I-201]	≤ 5%	< 10 nM
Cn1c(=O)n(C2CCC(=O)NC2=O)c2ccc(F)c([C@@H]3CCN(C[C@H]4CC[C@H](n5cc6cc(NC(=O)c7cncc(C#N)c7)c(C(C)(C)O)cc6n5)CC4)CC3(F)F)c21 (single isomer, unassigned) [I-226]	≤ 5%	< 10 nM
Cn1c(=O)n(C2CCC(=O)NC2=O)c2cccc([C@@H]3CCN(C[C@H]4CC[C@H](n5cc6cc(NC(=O)c7cncc(C(F)(F)F)n7)c(Cl)cc6n5)CC4)C[C@H]3F)c21 (some centres unmarked) [I-210]	≤ 5%	< 10 nM
Cn1c(=O)n(C2CCC(=O)NC2=O)c2cccc([C@@H]3CCN(C[C@H]4CC[C@H](n5cc6cc(NC(=O)c7cncc(C#N)c7)c(C(C)(C)O)cc6n5)CC4)C[C@H]3F)c21 (some centres unmarked) [I-188]	≤ 5%	< 10 nM
Cn1c(=O)n(C2CCC(=O)NC2=O)c2cccc([C@@H]3CCN(C[C@H]4CC[C@H](n5cc6cc(NC(=O)c7cccc(C#N)c7)ccc6n5)CC4)C[C@H]3F)c21 (some centres unmarked) [I-249]	≤ 5%	< 10 nM
CN(C[C@H]1CC[C@H](c2nc3cc(C(C)(C)O)c(NC(=O)c4cccc(C(F)(F)F)n4)cc3s2)CC1)[C@@H]1CCN(c2cccc3c2n(C)c(=O)n3C2CCC(=O)NC2=O)C[C@@H]1F (single isomer, unassigned) [I-104]	≥ 5%	< 10 nM
Cn1c(=O)n(C2CCC(=O)NC2=O)c2cccc(N3CCC(F)(CN4CCC(c5nc6cc(C(C)(C)O)c(NC(=O)c7cccc(C(F)(F)F)n7)cc6o5)CC4)CC3)c21 (centres unmarked) [I-197]	≤ 5%	> 200 nM
O=C1CCC(c2ccc(N3CC(N4CCN([C@H]5CC[C@H](n6cc(NC(=O)c7cnn8ccc(N9C[C@H]%10C[C@@H]9CO%10)nc78)c(C(F)F)n6)CC5)CC4)C3)cc2Cl)C(=O)N1 (single isomer, unassigned) [I-46]	≥ 5%	< 10 nM
COc1cc2nn([C@H]3CC[C@H](CN4CC[C@@H](c5cccc6c5n(C)c(=O)n6C5CCC(=O)NC5=O)C(F)(F)C4)CC3)cc2cc1NC(=O)c1cncc(C#N)c1 (single isomer, unassigned) [I-240]	≤ 5%	< 10 nM
Cn1c(=O)n([C@@H]2CCC(=O)NC2=O)c2cccc([C@@H]3CCN(C[C@H]4CC[C@H](n5cc6cc(NC(=O)c7cncc(C(F)(F)F)n7)ccc6n5)CC4)C[C@H]3F)c21 (single isomer, unassigned) [I-208]	≤ 5%	< 10 nM
Cn1c(=O)n(C2CCC(=O)NC2=O)c2cccc([C@@H]3CCN(C[C@H]4CC[C@H](n5cc6cc(NC(=O)c7cccc(C(F)(F)F)c7)ccc6n5)CC4)C[C@H]3F)c21 (some centres unmarked) [I-245]	≤ 5%	< 10 nM
Cn1c(=O)n(C2CCC(=O)NC2=O)c2cccc(N3CC(OC[C@H]4CC[C@H](n5cc(NC(=O)c6cnn7ccc(N8C[C@H]9C[C@@H]8CO9)nc67)c(C(F)F)n5)CC4)C3)c21 (some centres unmarked) [I-256]	≤ 5%	> 200 nM
Cn1c(=O)n(C2CCC(=O)NC2=O)c2cccc(N3CC(COC[C@H]4CC[C@H](n5cc(NC(=O)c6cnn7ccc(N8C[C@H]9C[C@@H]8CO9)nc67)c(C(F)F)n5)CC4)C3)c21 (some centres unmarked) [I-111]	≤ 5%	> 200 nM

Now from value to molecule:

bioavailability [1]	DC50 (IRAK4)	Structure (SMILES)
≤ 5%	< 10 nM	COc1cc(NC(=O)c2cncc(C(F)(F)F)n2)cc2cn([C@H]3CC[C@H](CN4CC[C@@H](c5cccc6c5n(C)c(=O)n6C5CCC(=O)NC5=O)[C@H](F)C4)CC3)nc12 (some centres unmarked) [I-355]
≥ 5%	< 10 nM	Cn1nc(C2CCC(=O)NC2=O)c2cccc([C@@H]3CCN(C[C@H]4CC[C@H](n5cc6cc(NC(=O)c7cncc(C#N)c7)c(C(C)(C)O)cc6n5)CC4)C[C@H]3F)c21 (single isomer, unassigned) [I-362]
≤ 5%	< 10 nM	Cn1c(=O)n(C2CCC(=O)NC2=O)c2cccc([C@@H]3CCN(C[C@H]4CC[C@H](n5cc6cc(NC(=O)c7cncc(C(F)F)n7)ncc6n5)CC4)C[C@H]3F)c21 (some centres unmarked) [I-321]
≤ 5%	< 10 nM	Cn1c(=O)n(C2CCC(=O)NC2=O)c2cccc([C@@H]3CCN(C[C@H]4CC[C@H](n5cc(NC(=O)c6cnn7ccc(N8C[C@H]9C[C@@H]8CO9)nc67)c(C(F)F)n5)CC4)CC3(F)F)c21 (single isomer, unassigned) [I-331]
≤ 5%	< 10 nM	CN(C[C@H]1CC[C@H](c2cn3cc(NC(=O)c4cncc(C(F)(F)F)n4)ccc3n2)CC1)[C@H]1CCN(c2cccc3c2n(C)c(=O)n3C2CCC(=O)NC2=O)C[C@@H]1F (single isomer, unassigned) [I-294]
≤ 5%	10 to 100 nM	CN(C[C@H]1CC[C@H](c2cn3cc(NC(=O)c4cncc(C(F)(F)F)n4)ccc3n2)CC1)[C@@H]1CCN(c2cccc3c2n(C)c(=O)n3C2CCC(=O)NC2=O)C[C@H]1F (single isomer, unassigned) [I-293]
≤ 5%	< 10 nM	Cc1cncc(C(=O)Nc2cc3cn([C@H]4CC[C@H](CN5CCC6(CN(c7cccc8c7n(C)c(=O)n8C7CCC(=O)NC7=O)C6)C(F)(F)C5)CC4)nc3cc2C(C)(C)O)c1 (some centres unmarked) [I-342]
≥ 5%	< 10 nM	CN(C[C@H]1CC[C@H](n2cc(NC(=O)c3cnn4cccnc34)c(C(F)F)n2)CC1)[C@@H]1CCN(c2cccc3c2n(C)c(=O)n3C2CCC(=O)NC2=O)C[C@H]1F (single isomer, unassigned) [I-279]
≥ 5%	> 200 nM	COc1cc(C(=O)Nc2ccc3nn([C@H]4CC[C@H](CN5CC[C@@H](c6cccc7c6n(C)c(=O)n7C6CCC(=O)NC6=O)[C@H](F)C5)CC4)cc3c2)nc(C(F)(F)F)c1 (some centres unmarked) [I-394]
≤ 5%	< 10 nM	Cn1c(=O)n(C2CCC(=O)NC2=O)c2cccc([C@@H]3CCN(C[C@H]4CC[C@H](n5cc6cc(NC(=O)c7cncc(C(F)(F)F)n7)cc(F)c6n5)CC4)C[C@H]3F)c21 (some centres unmarked) [I-356]
≤ 5%	10 to 100 nM	COc1cc2nc([C@H]3CC[C@H](CN4CC[C@@H](c5cccc6c5n(C)c(=O)n6C5CCC(=O)NC5=O)[C@H](F)C4)CC3)oc2cc1NC(=O)c1cncc(C(F)(F)F)n1 (some centres unmarked) [I-284]
≤ 5%	< 10 nM	COc1cc2nn([C@H]3CC[C@H](CN4CCC5(CN(c6c(F)ccc7c6n(C)c(=O)n7C6CCC(=O)NC6=O)C5)C(F)(F)C4)CC3)cc2cc1NC(=O)c1cncc(C#N)c1 (some centres unmarked) [I-260]
≤ 5%	> 200 nM	O=C1CCC(n2c(=O)oc3c([C@H]4CCN(C[C@H]5CC[C@H](n6cc7cc(NC(=O)c8cncc(C(F)(F)F)n8)ccc7n6)CC5)C[C@@H]4F)cccc32)C(=O)N1 (single isomer, unassigned) [I-360]
≤ 5%	> 200 nM	Cc1cc2nn([C@H]3CC[C@H](CN4CC[C@@H](c5cccc6c5n(C)c(=O)n6C5CCC(=O)NC5=O)[C@H](F)C4)CC3)cc2cc1NC(=O)c1cncc(C#N)c1 (some centres unmarked) [I-272]
≥ 5%	< 10 nM	Cn1c(=O)n(C2CCC(=O)NC2=O)c2cccc(N3CCC4(CCN(C[C@H]5CC[C@H](n6cc7cc(NC(=O)c8cncc(F)c8)c(C(C)(C)O)cc7n6)CC5)CC4(F)F)CC3)c21 (some centres unmarked) [I-386]
≤ 5%	< 10 nM	COc1cc2nn([C@H]3CC[C@H](CN4CC[C@@H](c5cccc6c(C7CCC(=O)NC7=O)nn(C)c56)[C@H](F)C4)CC3)cc2cc1NC(=O)c1cncc(C#N)c1 (single isomer, unassigned) [I-263]
≤ 5%	> 200 nM	COc1cc2nc([C@H]3CC[C@H](CN4CC[C@@H](c5cccc6c5n(C)c(=O)n6C5CCC(=O)NC5=O)C(F)(F)C4)CC3)sc2cc1NC(=O)c1cncc(C#N)c1 (single isomer, unassigned) [I-273]
